Assays:
[1] = Relative thermodynamic stability and interconversion of polymorphic forms; assay type: physicochemical
Description: (§1) Forms I and IV are enantiotropic with Form IV converting to Form I at temperatures greater than 45° C. when in contact with organic solvents.

[2] = Relative solubility of polymorphic forms; assay type: physicochemical; details: at temperatures below 45° C.
Description: as §1

stability relative to Form I ([1]; at temperatures below 45° C.): slightly more stable
temperature at which Form IV converts to Form I (enantiotropic) ([1]; in contact with organic solvents): greater than 45 °C
solubility relative to Form I [2]: slightly less soluble
Compound: Cc1ccc(-c2ncc(Cl)cc2-c2ccc(S(C)(=O)=O)cc2)cn1 [Form IV, 5-chloro-3-(4-methanesulfonylphenyl)-6′-methyl-[2,3′]bipyridinyl]
